The results in this text go back to patent publication US6645984B2, “Arylisoxazoline derivatives, processes for their preparation and their use as pesticides” (Aventis CropScience GmbH, priority 2001, dated 2003).

This assay has as its system Spodoptera litoralis. In words: whole plant or invertebrate. The settings on record: 96 h, read-out: larvae mortality. Type of assay: in vivo. How it is done: Nutrient medium (freeze-dried cube) is dipped into an aqueous solution of the formulated preparation to be examined and then placed into a Petri dish. Ten L2 larvae of the Egyptian cotton leaf worm (Spodoptera litoralis) are then added. The Petri dish is then closed with a lid. The effect of the preparation on the larvae is determined after 4 days of storage at about 23° C. At a concentration of 500 ppm (based on the content of active compound), the preparations of Example Nos. 5, 9, 12, 28, 29, 30, 35, 39, 40, 41, 42, 43, 45, 46, 48, 52, 63, 87, 90, 91, 92, 94, 97, 98, 99, 100, 103, 107, 113, 117, 120, 125, 566, 567, 573, 574, 589, 600, 613, 614, 619, 626 effect a larvae mortality of 80-100%.

For orientation: mortality means the percentage killed. Consider `CC1=NOC(c2ccc(C3COC(c4c(F)cccc4F)=N3)cc2)C1` (stereo not shown) [Example 566, 2-(2,6-Difluorophenyl)-4-(4-(3-methylisoxazolin-5-yl)phenyl)oxazoline], for which the mortality at 500 ppm is 80 to 100%.
